Test results as given in patent US10172843B2, “Piperidine derivatives” (Hoffmann-La Roche Inc., priority 2014, dated 2019).
Read-outs that look alike come from different tables or passages of the source.

Target: human Cat S (Homo sapiens (Human), UniProt P25774)
Assay: Cathepsin enzyme inhibition assay (fluorogenic peptide substrate)
Format: biochemical
Conditions: read-out: CatS IC50
Method: Cathepsin Enzyme Inhibition Assay
Enzyme activity is measured by observing the increase in fluorescence intensity caused by cleavage of a peptide substrate containing a fluorophore whose emission is quenched in the intact peptide.
Assay buffer: 100 mM potassium phosphate pH 6.5, EDTA-Na 5 mM, Triton X-100 0.001%, DTT 5 mM.
Enzymes (all at 1 nM): human and mouse Cathepsin S, Cat K, Cat B, Cat L.
Substrate ([…], except for Cat K which uses Z-Leu-Arg-AMC (both from Bachem).
Excitation 360 nm, Emission 465 nm.
Enzyme is added to the substance dilutions in 96-well microtitre plates and the reaction is started with substrate. […] IC50 are calculated by standard methods.
Inhibition of human Cat S, mouse Cat S, human Cat K, mouse Cat K, human Cat B, mouse Cat B, human Cat L and mouse Cat L have been measured separately.

[1] = human Cat S, enzyme 1 nM, substrate Z-Val-Val-Arg-AMC, pH 6.5

Sequence of human Cat S (P25774 115-331): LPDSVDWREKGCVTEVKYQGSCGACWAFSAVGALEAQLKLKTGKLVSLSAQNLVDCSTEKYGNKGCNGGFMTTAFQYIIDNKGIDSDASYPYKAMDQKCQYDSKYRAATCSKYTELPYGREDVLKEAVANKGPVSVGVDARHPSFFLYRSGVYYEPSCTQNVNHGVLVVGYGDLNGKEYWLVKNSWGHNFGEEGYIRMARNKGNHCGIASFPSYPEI

| SMILES | IC50 [1] | IC50 |
| --- | --- | --- |
| Cc1[nH]c(-c2ccc(Cl)cc2Cl)nc1CN1CCC(N2Cc3ccccc3NC2=O)CC1 [Example 57, 3-{1-[2-(2,4-Dichloro-phenyl)-5-methyl-1H-imidazol-4-ylmethyl]-piperidin-4-yl}-3,4-dihydro-1H-quinazolin-2-one] | 995 nM | – |
| Cc1[nH]c(-c2ccc(C(F)(F)F)cc2)nc1CN1CCC(N2C(=O)Cc3ccccc32)CC1 [Example 2, 1-{1-[5-Methyl-2-(4-trifluoromethyl-phenyl)-1H-imidazol-4-ylmethyl]-piperidin-4-yl}-1,3-dihydro-indol-2-one] | – | 780 nM |
| O=c1[nH]ccc2c1ncn2C1CCN(Cc2cnc(-c3ccc(C(F)(F)F)cc3)[nH]2)CC1 [Example 14, 1-[1-[[2-[4-(Trifluoromethyl)phenyl]-1H-imidazol-5-yl]methyl]-4-piperidyl]-5H-imidazo[4,5-c]pyridin-4-one] | 4320 nM | – |
| Cc1[nH]c(-c2ccc(C(F)(F)F)cc2)nc1CN1CCC(N2C(=O)Cc3cc(Cl)ccc32)CC1 [Example 43, 5-Chloro-1-{1-[5-methyl-2-(4-trifluoromethyl-phenyl)-1H-imidazol-4-ylmethyl]-piperidin-4-yl}-1,3-dihydro-indol-2-one] | – | 445 nM |
| Cc1nc(-c2ccc(C(F)(F)F)cc2)[nH]c1CN1CCC(n2cnc3c(=O)[nH]ccc32)CC1 [Example 13, 1-[1-[[4-Methyl-2-[4-(trifluoromethyl)phenyl]-1H-imidazol-5-yl]methyl]-4-piperidyl]-5H-imidazo[4,5-c]pyridin-4-one] | 2750 nM | – |
| Cc1[nH]c(-c2ccc(S(C)(=O)=O)cc2)nc1CN1CCC(N2Cc3ccccc3NC2=O)CC1 [Example 74, 3-{1-[2-(4-Methanesulfonyl-phenyl)-5-methyl-1H-imidazol-4-ylmethyl]-piperidin-4-yl}-3,4-dihydro-1H-quinazolin-2-one] | 94 nM | – |
| Cc1c(CN2CCC(n3c(=O)n(C)c4ccccc43)CC2)nc(-c2ccc(C(F)(F)F)cc2)n1C [Example 70, 1-{1-[1,5-Dimethyl-2-(4-trifluoromethyl-phenyl)-1H-imidazol-4-ylmethyl]-piperidin-4-yl}-3-methyl-1,3-dihydro-benzoimidazol-2-one] | 245 nM | – |
| Cc1[nH]c(-c2ccc(C(F)(F)F)c(Cl)c2)nc1CN1CCC(N2Cc3ccc(F)cc3NC2=O)CC1 [Example 45, 3-{1-[2-(3-Chloro-4-trifluoromethyl-phenyl)-5-methyl-1H-imidazol-4-ylmethyl]-piperidin-4-yl}-7-fluoro-3,4-dihydro-1H-quinazolin-2-one] | 110 nM | – |
| CNC(=O)Cn1c(=O)n(C2CCN(Cc3nc(-c4ccc(C(F)(F)F)cc4)[nH]c3C)CC2)c2ccc(Cl)cc21 [Example 32, 2-(6-Chloro-3-{1-[5-methyl-2-(4-trifluoromethyl-phenyl)-1H-imidazol-4-ylmethyl]-piperidin-4-yl}-2-oxo-2,3-dihydro-benzoimidazol-1-yl)-N-methyl-acetamide] | 330 nM | – |
| Cc1[nH]c(-c2ccc(C(F)(F)F)c(F)c2)nc1CN1CCC(N2Cc3ccccc3NC2=O)CC1 [Example 47, 3-{1-[2-(3-Fluoro-4-trifluoromethyl-phenyl)-5-methyl-1H-imidazol-4-ylmethyl]-piperidin-4-yl}-3,4-dihydro-1H-quinazolin-2-one] | 145 nM | – |
| Cc1[nH]c(-c2ccc(S(=O)(=O)C(F)(F)F)cc2)nc1CN1CCC(c2c[nH]c3ccncc23)CC1 [Example 77, 3-{1-[5-Methyl-2-(4-trifluoromethanesulfonyl-phenyl)-1H-imidazol-4-ylmethyl]-piperidin-4-yl}-1H-pyrrolo[3,2-c]pyridine] | 155 nM | – |
| Cc1[nH]c(-c2ccc(C(F)(F)F)c(Cl)c2)nc1CN1CCC(n2c(=O)n(C)c3ccccc32)CC1 [Example 39, 1-{1-[2-(3-Chloro-4-trifluoromethyl-phenyl)-5-methyl-1H-imidazol-4-ylmethyl]-piperidin-4-yl}-3-methyl-1,3-dihydro-benzoimidazol-2-one] | 242 nM | – |
| Cc1[nH]c(-c2ccc(C(F)(F)F)c(Cl)c2)nc1CN1CCC(N2Cc3ccccc3NC2=O)CC1 [Example 40, 3-{1-[2-(3-Chloro-4-trifluoromethyl-phenyl)-5-methyl-1H-imidazol-4-ylmethyl]-piperidin-4-yl}-3,4-dihydro-1H-quinazolin-2-one] | 77 nM | – |
| CC(=O)OCCn1c(=O)n(C2CCN(Cc3nc(-c4ccc(C(F)(F)F)cc4)[nH]c3C)CC2)c2ccc(Cl)cc21 [Example 29, Acetic acid 2-(6-chloro-3-{1-[5-methyl-2-(4-trifluoromethyl-phenyl)-1H-imidazol-4-ylmethyl]-piperidin-4-yl}-2-oxo-2,3-dihydro-benzoimidazol-1-yl)-ethyl ester] | 280 nM | – |
| Cc1[nH]c(-c2ccc(S(=O)(=O)C(F)(F)F)cc2)nc1CN1CCC(N2Cc3ccccc3NC2=O)CC1 [Example 72, 3-{1-[5-Methyl-2-(4-trifluoromethanesulfonyl-phenyl)-1H-imidazol-4-ylmethyl]-piperidin-4-yl}-3,4-dihydro-1H-quinazolin-2-one] | 24 nM | – |
| Cc1[nH]c(-c2ccc(C(F)(F)F)cc2)nc1CN1CCC(N2Cc3ccccc3N(C)C2=O)CC1 [Example 53, 1-Methyl-3-{1-[5-methyl-2-(4-trifluoromethyl-phenyl)-1H-imidazol-4-ylmethyl]-piperidin-4-yl}-3,4-dihydro-1H-quinazolin-2-one] | 145 nM | – |
| Cc1[nH]c(-c2ccc(S(=O)(=O)Cc3ccccc3)cc2)nc1CN1CCC(N2Cc3ccccc3NC2=O)CC1 [Example 80, 3-{1-[5-Methyl-2-(4-phenylmethanesulfonyl-phenyl)-1H-imidazol-4-ylmethyl]-piperidin-4-yl}-3,4-dihydro-1H-quinazolin-2-one] | 99 nM | – |
| CCn1c(=O)n(C2CCN(Cc3nc(-c4ccc(C(F)(F)F)cc4)[nH]c3C)CC2)c2ccc(Cl)cc21 [Example 26, 5-Chloro-3-ethyl-1-{1-[5-methyl-2-(4-trifluoromethyl-phenyl)-1H-imidazol-4-ylmethyl]-piperidin-4-yl}-1,3-dihydro-benzoimidazol-2-one] | 150 nM | – |
| COC(=O)Cn1c(=O)n(C2CCN(Cc3nc(-c4ccc(C(F)(F)F)cc4)[nH]c3C)CC2)c2ccc(Cl)cc21 [Example 33, (6-Chloro-3-{1-[5-methyl-2-(4-trifluoromethyl-phenyl)-1H-imidazol-4-ylmethyl]-piperidin-4-yl}-2-oxo-2,3-dihydro-benzoimidazol-1-yl)-acetic acid methyl ester] | 130 nM | – |
| O=C1Nc2ccccc2CN1C1CCN(Cc2nc(-c3ccc(C(F)(F)F)cc3)[nH]c2Cc2ccccc2)CC1 [Example 56, 3-{1-[5-Benzyl-2-(4-trifluoromethyl-phenyl)-1H-imidazol-4-ylmethyl]-piperidin-4-yl}-3,4-dihydro-1H-quinazolin-2-one] | 225 nM | – |
| Cc1[nH]c(-c2ccc(S(=O)(=O)Cc3ccccc3)cc2)nc1CN1CCC(n2c(=O)n(C)c3ccccc32)CC1 [Example 81, 1-Methyl-3-{1-[5-methyl-2-(4-phenylmethanesulfonyl-phenyl)-1H-imidazol-4-ylmethyl]-piperidin-4-yl}-1,3-dihydro-benzoimidazol-2-one] | 170 nM | – |
| Cc1[nH]c(-c2ccc(S(=O)(=O)CC(C)C)cc2)nc1CN1CCC(n2c(=O)n(C)c3ccccc32)CC1 [Example 79, 1-Methyl-3-(1-{5-methyl-2-[4-(2-methyl-propane-1-sulfonyl)-phenyl]-1H-imidazol-4-ylmethyl}-piperidin-4-yl)-1,3-dihydro-benzoimidazol-2-one] | 2870 nM | – |
| O=c1[nH]c(-c2ccc(Br)cc2)nn1C1CCN(Cc2cnc(-c3ccc(C(F)(F)F)cc3)[nH]2)CC1 [Example 16, 5-(4-Bromophenyl)-2-[1-[[2-[4-(trifluoromethyl)phenyl]-1H-imidazol-5-yl]methyl]-4-piperidyl]-4H-1,2,4-triazol-3-one] | 1500 nM | – |
| COCCN1C(=O)N(C2CCN(Cc3nc(-c4ccc(C(F)(F)F)cc4)[nH]c3C)CC2)Cc2ccccc21 [Example 54, 1-(2-Methoxy-ethyl)-3-{1-[5-methyl-2-(4-trifluoromethyl-phenyl)-1H-imidazol-4-ylmethyl]-piperidin-4-yl}-3,4-dihydro-1H-quinazolin-2-one] | 135 nM | – |
| COCCc1[nH]c(-c2ccc(C(F)(F)F)cc2)nc1CN1CCC(c2c[nH]c3ccncc23)CC1 [Example 61, 3-{1-[5-(2-Methoxy-ethyl)-2-(4-trifluoromethyl-phenyl)-1H-imidazol-4-ylmethyl]-piperidin-4-yl}-1H-pyrrolo[3,2-c]pyridine] | 1940 nM | – |
| Cc1[nH]c(-c2ccc(S(=O)(=O)CC(C)C)cc2)nc1CN1CCC(N2Cc3ccccc3NC2=O)CC1 [Example 78, 3-(1-{5-Methyl-2-[4-(2-methyl-propane-1-sulfonyl)-phenyl]-1H-imidazol-4-ylmethyl}-piperidin-4-yl)-3,4-dihydro-1H-quinazolin-2-one] | 1070 nM | – |
| CCCc1[nH]c(-c2ccc(C(F)(F)F)cc2)nc1CN1CCC(n2c(=O)n(C)c3ccccc32)CC1 [Example 64, 1-Methyl-3-{1-[5-propyl-2-(4-trifluoromethyl-phenyl)-1H-imidazol-4-ylmethyl]-piperidin-4-yl}-1,3-dihydro-benzoimidazol-2-one] | 928 nM | – |
| Cc1[nH]c(-c2ccc(C(F)(F)F)cc2)nc1CN1CCC(n2c(=O)n(C)c3cc(Cl)ccc32)CC1 [Example 18, 5-Chloro-3-methyl-1-{1-[5-methyl-2-(4-trifluoromethyl-phenyl)-1H-imidazol-4-ylmethyl]-piperidin-4-yl}-1,3-dihydro-benzoimidazol-2-one] | 195 nM | – |
